Assay results taken from the NIST ThermoML archive (doi:10.1016/j.tca.2010.08.002).
± gives the expanded uncertainty stated by the source.

Conditions: for molar entropy: 101.33 kPa, Vacuum adiabatic calorimetry; for Triple point temperature: Adiabatic calorimetry

## CCCCn1cc[n+](C)c1.O=S(=O)([O-])C(F)(F)F [1-butyl-3-methylimidazolium trifluoromethanesulfonate]
5 K, Crystal 2
  molar entropy: 0.4944 ± 0.023 J/K/mol
10 K, Crystal 2
  molar entropy: 3.77 ± 0.06 J/K/mol
15 K, Crystal 2
  molar entropy: 10.39 ± 0.12 J/K/mol
20 K, Crystal 2
  molar entropy: 19.26 ± 0.18 J/K/mol
25 K, Crystal 2
  molar entropy: 29.42 ± 0.22 J/K/mol
30 K, Crystal 2
  molar entropy: 40.29 ± 0.19 J/K/mol
35 K, Crystal 2
  molar entropy: 51.44 ± 0.22 J/K/mol
40 K, Crystal 2
  molar entropy: 62.61 ± 0.25 J/K/mol
45 K, Crystal 2
  molar entropy: 73.65 ± 0.28 J/K/mol
50 K, Crystal 2
  molar entropy: 84.51 ± 0.32 J/K/mol
55 K, Crystal 2
  molar entropy: 95.14 ± 0.35 J/K/mol
60 K, Crystal 2
  molar entropy: 105.5 ± 0.4 J/K/mol
65 K, Crystal 2
  molar entropy: 115.6 ± 0.4 J/K/mol
70 K, Crystal 2
  molar entropy: 125.5 ± 0.4 J/K/mol
80 K, Crystal 2
  molar entropy: 144.6 ± 0.5 J/K/mol
90 K, Crystal 2
  molar entropy: 162.8 ± 0.5 J/K/mol
100 K, Crystal 2
  molar entropy: 180.2 ± 0.6 J/K/mol
110 K, Crystal 2
  molar entropy: 196.9 ± 0.6 J/K/mol
130 K, Crystal 1
  molar entropy: 228.7 ± 0.6 J/K/mol
140 K, Crystal 1
  molar entropy: 243.7 ± 0.7 J/K/mol
150 K, Crystal 1
  molar entropy: 258.3 ± 0.7 J/K/mol
160 K, Crystal 1
  molar entropy: 272.5 ± 0.7 J/K/mol
170 K, Crystal 1
  molar entropy: 286.5 ± 0.7 J/K/mol
180 K, Crystal 1
  molar entropy: 300.3 ± 0.8 J/K/mol
190 K, Crystal 1
  molar entropy: 313.8 ± 0.8 J/K/mol
200 K, Crystal 1
  molar entropy: 327.3 ± 0.8 J/K/mol
210 K, Crystal 1
  molar entropy: 340.6 ± 0.8 J/K/mol
220 K, Crystal 1
  molar entropy: 353.9 ± 0.8 J/K/mol
230 K, Crystal 1
  molar entropy: 367.1 ± 0.9 J/K/mol
240 K, Crystal 1
  molar entropy: 380.2 ± 0.9 J/K/mol
250 K, Crystal 1
  molar entropy: 393.3 ± 0.9 J/K/mol
260 K, Crystal 1
  molar entropy: 406.4 ± 0.9 J/K/mol
270 K, Crystal 1
  molar entropy: 419.4 ± 0.9 J/K/mol
280 K, Crystal 1
  molar entropy: 432.5 ± 1 J/K/mol
290 K, Crystal 1
  molar entropy: 445.5 ± 1 J/K/mol
290.98 K, Crystal 1
  molar entropy: 446.8 ± 1 J/K/mol
290.98 K, Liquid
  molar entropy: 513.6 ± 1.1 J/K/mol
298.15 K, Liquid
  molar entropy: 523.9 ± 1.1 J/K/mol
300 K, Liquid
  molar entropy: 526.6 ± 1.1 J/K/mol
310 K, Liquid
  molar entropy: 540.7 ± 1.1 J/K/mol
320 K, Liquid
  molar entropy: 554.6 ± 1.1 J/K/mol
330 K, Liquid
  molar entropy: 568.2 ± 1.2 J/K/mol
340 K, Liquid
  molar entropy: 581.5 ± 1.2 J/K/mol
350 K, Liquid
  molar entropy: 594.7 ± 1.2 J/K/mol
360 K, Liquid
  molar entropy: 607.6 ± 1.2 J/K/mol
370 K, Liquid
  molar entropy: 620.3 ± 1.2 J/K/mol
Crystal 1
  Triple point temperature: 290.98 ± 0.04 K
Crystal 2
  Triple point temperature: 120 ± 0.1 K
